Columns and labels:
BAE = assay: Proliferation of cultured cells, 72 hr; format: cell-based, bovine; settings: for IC50: 72 hr
Procedure: BCE (Folkman et al. 1979), BAE, BxPC-3 (ATCC, Bethesda, Md.), HT1080 (Jiang et al., 1999), 3T3 (ATCC, Bethesda, Md.) and BVSM (Hogg et al., 1997) cells were harvested and cultured as indicated. Cells (0.5 mL of 30,000 or 100,000 cells per mL) were seeded into gelatinized 24-well culture plates (Corning Costar, Corning, N.Y.) in Dulbecco's Modified Eagle's Medium (DMEM, JHR Bioscience, Lenexa, Kans.) containing 10% fetal calf serum (FCS, Intergen Comp., Purchase, N.Y.) and 1% Glutamine Pen-Strep (GPS, Irvine Scientific, Santa Ana, Va.) and allowed to attach for 24 hr in 10% CO2 at 37° C. The media was then replaced with DMEM and 1% GPS containing 0 to 1 mM GSAO or GSAA and either 5% bovine calf serum (BCS, HyClone, Logan, Utah) and 1 ng per mL FGF-2 (Genzyme, Cambridge, Mass.) or 5% BCS and 10 ng per mL VEGF (Genzyme, Cambridge, Mass.) for BCE cells, 5% or 10% BCS for BAE cells, 5% BCS for BVSM cells, and 5% FCS for BxPC-3, HT1080 and 3T3 cells. Cells were cultured for 0 to 72 hr in 10% CO2 at 37° C. then dispersed in trypsin/EDTA (GibcoBRL, Granc Island, N.Y.), resuspended in Coulter balanced electrolyte solution and counted with a Z1 Coulter counter (Coulter Corp., Miami, Fla.) in all experiments there were two control wells containing DMEM with 1% GPS and either 5% BCS for BCE cells, 2% BCS for BAE and BVSM cells, or 2% FCS for BxPC-3, HT1080 and 3T3 cells. These wells represented no to limited proliferation.

HDMVE cells = assay: Endothelial cell tube formation in Matrigel; format: cell-based, human; settings: 0.1, 1 or 100 μM; 18 hours
Procedure: FIG. 21. GSAO perturbs endothelial cell tube formation in Matrigel. Matrigel (100 μl) was added to wells of 96 well plates and allowed to gel for 60 minutes at 37° C. HDMVE cells (10,000 cells per well) in complete media containing 0.1, 1 or 100 μM GSAA or GSAO were seeded onto the Matrigel and the plates were incubated in 5% CO2, 37° C. The phase contrast micrographs were taken after 18 hours incubation.
Endothelial cells arrange into tube-like structures when seeded onto three-dimensional matrices such as the extracellular matrix preparation, Matrigel, or collagen. The tubes can be considered to represent immature blood vessels. Matrigel (100 μl, Becton Dickinson, Bedford, Mass.) was added to wells of 96 well plates (Gibco BRL, Gaithersburg, Md.) and allowed to gel for 60 minutes at 37° C. Human dermal microvascular endothelial (HDMVE) cells were harvested and cultured as described by Stathakis et al (1997), HDMVE cells (8,000 cells per well) in 150 μl of M199 (Gibco BRL, Gaithersburg, Md.) media containing 30% pooled human serum, 50 μg per mL Heparin (Sigma, St. Louis, Mo.), 100 μg per mL Endothelial Cell Growth Supplement (Gibco BRL, Gaithersburg, Md.) and 0.1, 1 or 100 μM GSAA or GSAO were seeded onto the Matrigel and the plates were incubated for 18 hours in 5% CO2, 37° C. Phase contrast micrographs of the wells were collected.

Lewis lung tumours = assay: Tumour growth in mice, subcutaneous administration; format: in vivo, C57Bl6/J mice; settings: 10 mg per kg per day; for inhibition of the rate of Lewis lung tumour growth: subcutaneous
Procedure: FIG. 25. Inhibition of human fibrosarcoma and murine Lewis lung tumour growth following systemic administration of GSAO. HT1080 or Lewis lung tumours were established in the proximal midline of female 7 to 9 week old SCID or C57Bl6/J mice, respectively. When the tumours were ˜0.1 cm^3 in volume the mice were randomised into two groups (n=5) and treated with either GSAA or GSAO at a dose of 10 mg per kg per day in 0.2 mL of PBS containing 100 mM glycine. The compounds were administered subcutaneously at a site distant from the tumour. Tumour volume and animal weight was measured every 3 days. The GSAO/GSAA HT1080 tumour volume ratio at day 17 of treatment was 0.29 (part A). The GSAO/GSAA Lewis lung tumour volume ratio at day 12 of treatment was 0.29 (part B). The data points and errors represent the mean and SE of the tumour volumes.
Female 7 to 9 week old SCID or C57Bl6/J mice were used (Massachusetts General Hospital, Boston, Mass.). Mice were held in groups of 3 to 5 at a 12 hour day and night cycle and were fed with animal chow and water ad libidum. SCID mice were anaesthetised by inhalation of isoflurane, the dorsal skin shaved and cleaned with ethanol, and a suspension of 2.5×10^6 BxPC-3 or HT1080 cells in 0.2 mL of DMEM was injected subcutaneously in the proximal midline. C57Bl6/J mice with Lewis lung carcinomas of 0.6-1.2 cm^3 volumes were sacrificed and the skin overlying the tumour was cleaned with betadine and ethanol. Tumour tissue was excised under aseptic conditions and a suspension of tumour cells in 0.9% saline was made by passage of tumour tissue through a sieve and a series of sequentially smaller 22- to 30-gauge hypodermic needles. C57Bl6/J mice were anaesthetised and prepared as for SCID mice and a suspension of Lewis lung carcinoma cells in 0.2 mL of saline was injected subcutaneously in the proximal midline. […] The tumours were measured in two diameters and tumour volume was calculated using the relationship, tumour volume=a×b^2×0.52, where a is the longest and b the shortest diameters in cm. […] Tumour volume and animal weight was measured every 3 days. […]

[1] = format: in vivo, SCID mice; settings: for macroscopic differences to untreated mice / morphological changes in heart, lungs, liver, kidneys, spleen: 10 mg per kg per day; for macroscopic differences to untreated mice: end of experiment; for morphological changes in heart, lungs, liver, kidneys, spleen: light microscopy (not shown); for adverse side effects of administration: 2 or 10 mg per kg per day, subcutaneous
Procedure: FIG. 24. […] The data points and errors represent the mean and SE of the animal weights for the experiment described in FIG. 23.
Female 7 to 9 week old SCID or C57Bl6/J mice were used (Massachusetts General Hospital, Boston, Mass.). Mice were held in groups of 3 to 5 at a 12 hour day and night cycle and were fed with animal chow and water ad libidum. SCID mice were anaesthetised by inhalation of isoflurane, the dorsal skin shaved and cleaned with ethanol, and a suspension of 2.5×10^6 BxPC-3 or HT1080 cells in 0.2 mL of DMEM was injected subcutaneously in the proximal midline. C57Bl6/J mice with Lewis lung carcinomas of 0.6-1.2 cm^3 volumes were sacrificed and the skin overlying the tumour was cleaned with betadine and ethanol. Tumour tissue was excised under aseptic conditions and a suspension of tumour cells in 0.9% saline was made by passage of tumour tissue through a sieve and a series of sequentially smaller 22- to 30-gauge hypodermic needles. C57Bl6/J mice were anaesthetised and prepared as for SCID mice and a suspension of Lewis lung carcinoma cells in 0.2 mL of saline was injected subcutaneously in the proximal midline. Tumours were allowed to establish and grow to a size of ˜0.1 cm^3 after which they were randomised into two groups. The tumours were measured in two diameters and tumour volume was calculated using the relationship, tumour volume=a×b^2×0.52, where a is the longest and b the shortest diameters in cm. Animals were treated with either GSAA or GSAO at doses of 2 or 10 mg per kg per day in 0.2 mL of PBS containing 100 mM glycine. The compounds were administered subcutaneously at a site distant from the tumour. Tumour volume and animal weight was measured every 3 days. The tumours were excised and weighed when the animals were sacrificed.
At the conclusion of the experiment described in FIG. 23B the mice from both treatment groups were examined. […] The heart, lungs, liver, kidneys, and spleen of the GSAA or GSAO-treated and untreated mice were fixed in formaldehyde, embedded in paraffin, sectioned, stained with haematoxylin and eosin and examined by light microscopy.

Row | Structure (SMILES) | IC50 (BAE; 5% BCS) [µM] | IC50 (BAE; 10% BCS) [µM] | effect on tube formation (HDMVE cells) | inhibition of the rate of Lewis lung tumour growth (Lewis lung tumours) | GSAO/GSAA Lewis lung tumour volume ratio (Lewis lung tumours; day 12 of treatment) | macroscopic differences to untreated mice [1] | morphological changes in heart, lungs, liver, kidneys, spleen [1] | adverse side effects of administration [1] | effect on proliferation of BAE cells (BAE; not shown)
1 | NC(CCC(=O)NC(CSCC(=O)Nc1ccc([As]=O)cc1)C(=O)NCC(=O)O)C(=O)O (centres unmarked) [GSAO, 4-(N-(S-glutathionylacetyl)amino)-phenylarsenoxide] | ~0.02 | ~0.2 | Effects were apparent at 0.1 μM concentration and marked at 100 μM | ~70% | 0.29 | no apparent macroscopic differences | no obvious morphological changes | no apparent adverse side effects | 
2 | N[C@@H](CCC(=O)N[C@@H](CSCC(=O)Nc1ccc([As](=O)(O)O)cc1)C(=O)NCC(=O)O)C(=O)O [GSAA, 4-(N-(S-glutathionylacetyl)amino)phenylarsonic acid, reference compound] |  |  | no apparent effect on tube formation | no effect |  | no apparent macroscopic differences | no obvious morphological changes | no apparent adverse side effects | did not effect either proliferation or viability

— patent US7498406B2, “Substantially cell membrane impermeable compound and use thereof” (priority 1999, dated 2009)
